Consider two compounds from US20250304587A1, “WEE1 INHIBITOR, PREPARATION THEREFOR AND USE THEREOF” (JIANGSU TASLY DIYI PHARMACEUTICAL CO., LTD., priority 2022, published 2025).

Where two headings read alike, the source gives them in different places.

Data set [1] is described as follows: Membrane permeability in Caco-2 model. The note with it: human, Caco-2, pH 7.4; Caco2, 10 μM, 90 min. Type of data set: in vitro ADME. Summed up:
(§1)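 Caco-2 monolayers grown 21-28 days post-seeding, integrity checked by Lucifer Yellow Papp. Apical and basolateral compound levels measured by LC-MS/MS against a standard curve to derive apparent permeability (Papp).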

The next data set relates to HUVEC cells. Nature of the data set: Cell Titer-Glo anti-proliferation, normal cells HUVEC. In kind it is cell-based. The note with it: Homo sapiens, HUVEC. Summed up:
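Cells were exposed to serial compound concentrations (0.2% DMSO final) for 3 days at 37 °C, 5% CO2, then lysed with Cell Titer-Glo and read by luminescence. Inhibition was referenced to untreated-cell and medium-only controls, and IC50 came from a four-parameter variable-slope log(inhibitor)–response fit.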

In the next data set the target is CYP 2B6 (Homo sapiens (Human), UniProt P20813). Nature of the data set: Cytochrome P450 inhibition, CYP2B6. In kind it is in vitro ADME. The protocol: (§2) Enzymatic experiments were performed to quantify the inhibition of CYP450 enzyme activity of each isoform of CYP450 by small molecule inhibitors through fluorescence generated by the oxidation of the substrate by cytochrome P450. […] The Solution B composition used for the experiment was: 40 U/mL G6PDH (Sigma-aldrich, Cat #G6378). The substrate mix was 0.05× Solution A, 0.01× Solution B, 50 mM Potassium Phosphate, 0.01 mM BOMCC/0.01 mM EOMCC/0.001 mM DBOMF. […] The data were analyzed and processed using GraphPad Prism 6 software to obtain IC50 values.

A further data set concerns the target CYP2D6 (Homo sapiens (Human), UniProt P10635). Put plainly: Cytochrome P450 inhibition (fluorescence), CYP2D6. The note with it: read-out: IC50 CYP2D6. Type of data set: in vitro ADME. Here is the method: as §2
Data set [2] in a line: Plasma protein binding (equilibrium dialysis), mouse. The note with it: mouse, plasma.
Protocol: (§3) Sample preparation: The compound was dissolved in DMSO to a stock solution of 10 mM, then the compound was diluted with PBS to a secondary stock solution of 0.02 mM, and then the above 0.02 mM was diluted to 1 μM using blank plasma, which was the sample to be incubated.
(§4) Dialysis set-up preparation: 400 μL of blank PBS was first added to the white wells of the equilibrated dialysis plate and 200 μL of the configured plasma sample was added to the red wells, and the dialysis plate was sealed with a sealing film.
(§5) Recovery plate preparation: Two 96-well deep-well plates, labelled T0 and T5, were prepared and all plasma samples were added at n=2. 300 μL of acetonitrile (Verapamil-HCl, 4 ng/mL) was added directly to the TO plate, followed by 50 μL of blank PBS mix well for 5 min and left to stand in a 4° C. refrigerator until the end of the incubation.
(§6) Experimental Operation: The dialysis device and the T5 plate were incubated together for 5 h in a microplate thermostatic shaker (37° C., using 300 rpm or minimum speed). At the end of the incubation, 300 μL of acetonitrile (Verapamil-HCl, 4 ng/mL) was added and 50 μL of PBS solution was added. At the end of the dialysis incubation, a new 96-well deep well plate was taken. Add 50 μL of plasma well sample to the corresponding position of the 96-well plate, 300 μL of acetonitrile and 50 μL of blank PBS; take 50 μL of buffer well sample to the corresponding position of the 96-well plate, then add 300 μL of acetonitrile and 50 μL of blank plasma. Add 300 μL of acetonitrile (Verapamil-HCl, 4 ng/mL) to the plasma-containing wells of the T5 plate, and then 50 μL of PBS solution was added. Shake for 5 min to fully precipitate the proteins and centrifuge at 20,000 g for 10 min at 4° C. Add 200 μL of supernatant to 200 μL of pure water, mix well and perform LC-MS/MS analysis.
(§7) • Plasma protein binding rate=[(Rpe−Rb)/Rpe]×100% • Recovery=[(Rpe+Rb)/R5 h]×100% • Stability=(R5/R0)×100%
(§8) • Rpe=ratio of plasma-side testing sample peak area to internal standard • Rb=ratio of buffer side testing sample peak area to internal standard • R5=ratio of incubator stability sample peak area to internal standard • R0=ratio of refrigerator stability sample peak area to internal standard
The conditions of data set [3]: SD, rat, in vivo, 14 days.
A further data set relates to OVCAR-3 cells. Nature of the data set: Cell Titer-Glo anti-proliferation, OVCAR-3 cells. In kind it is cell-based. The note with it: Homo sapiens, OVCAR-3, 72 h, 3 days, read-out: Anti-proliferative activity OVCAR-3 (IC50 class). Summed up:
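Each line was exposed to graded compound concentrations for 3 days at 37 °C, 5% CO2, with final DMSO at 0.2%. Viability was measured by Cell Titer-Glo luminescence, with untreated cells as the maximum and medium as the minimum signal. IC50 came from a variable-slope log(inhibitor)-response fit.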

Data set [4] can be described thus: Plasma protein binding (equilibrium dialysis), rat. In kind it is in vitro ADME. The note with it: 5 h dialysis, read-out: Plasma Protein binding (PPB) Rat (converted).
For a further data set, the system named is Caco-2 cells. Put plainly: Membrane permeability in Caco-2 model. Type of data set: in vitro ADME. Summed up: as §1
The subject of data set [5] is plasma protein. Put plainly: Plasma protein binding (equilibrium dialysis), mouse. The note with it: mouse plasma, 1 μM, 5 h dialysis.
Protocol: as §3, §4, §5, §6, §7, §8
The next data set deals with hERG potassium channel (Homo sapiens (Human), UniProt Q12809). Nature of the data set: hERG potassium channel inhibition, patch clamp in CHO hERG cells.
The nature of data set [6]: Toxicity in rats after 14 consecutive days of administration, survival. The note with it: 14 days continuous administration, compared with controls.
The subject of data set [7] is plasma protein. Nature of the data set: Plasma protein binding (equilibrium dialysis), rat. In kind it is in vitro ADME. The note with it: 1 μM, 5 h dialysis.
The nature of data set [8]: Single dose toxicity in rats, maximum tolerated dose.
Where [9] appears, read: female rats, 200 mg/kg by gavage.
Setting [10] is: female rats, 300 mg/kg by gavage.
Setting [11] is: female rats, 400 mg/kg by gavage.
Where [12] appears, read: female rats, 500 mg/kg by gavage.

Sequence of hERG potassium channel (Q12809 whole entry): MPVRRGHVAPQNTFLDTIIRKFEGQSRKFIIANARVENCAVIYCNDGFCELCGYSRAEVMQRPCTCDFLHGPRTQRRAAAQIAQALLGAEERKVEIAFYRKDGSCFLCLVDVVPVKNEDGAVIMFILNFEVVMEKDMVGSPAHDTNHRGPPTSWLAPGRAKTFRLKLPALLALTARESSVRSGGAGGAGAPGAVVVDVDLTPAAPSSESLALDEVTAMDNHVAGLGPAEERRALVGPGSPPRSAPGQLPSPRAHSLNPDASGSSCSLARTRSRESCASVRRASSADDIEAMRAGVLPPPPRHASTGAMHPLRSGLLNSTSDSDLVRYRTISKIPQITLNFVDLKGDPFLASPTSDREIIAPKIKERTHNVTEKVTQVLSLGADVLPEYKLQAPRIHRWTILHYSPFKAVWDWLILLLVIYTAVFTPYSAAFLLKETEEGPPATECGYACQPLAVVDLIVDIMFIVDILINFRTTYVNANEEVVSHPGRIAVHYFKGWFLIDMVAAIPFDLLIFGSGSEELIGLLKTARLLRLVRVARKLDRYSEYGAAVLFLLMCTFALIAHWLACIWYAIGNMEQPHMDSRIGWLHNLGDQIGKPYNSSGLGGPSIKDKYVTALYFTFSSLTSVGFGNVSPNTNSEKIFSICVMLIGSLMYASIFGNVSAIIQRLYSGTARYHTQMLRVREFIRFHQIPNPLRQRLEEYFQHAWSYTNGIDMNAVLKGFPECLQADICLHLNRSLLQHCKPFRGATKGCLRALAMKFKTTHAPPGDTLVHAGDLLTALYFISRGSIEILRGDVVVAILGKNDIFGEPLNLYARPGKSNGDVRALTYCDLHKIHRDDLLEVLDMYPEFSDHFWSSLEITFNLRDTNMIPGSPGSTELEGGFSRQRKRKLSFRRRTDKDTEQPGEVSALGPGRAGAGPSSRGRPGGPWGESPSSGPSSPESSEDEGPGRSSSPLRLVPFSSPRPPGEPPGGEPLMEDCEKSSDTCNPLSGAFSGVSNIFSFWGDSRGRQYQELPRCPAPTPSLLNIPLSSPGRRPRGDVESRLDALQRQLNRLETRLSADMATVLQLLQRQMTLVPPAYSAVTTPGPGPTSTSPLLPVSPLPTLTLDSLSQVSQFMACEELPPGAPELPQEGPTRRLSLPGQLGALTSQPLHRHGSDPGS
Sequence of CYP2D6 (P10635 whole entry): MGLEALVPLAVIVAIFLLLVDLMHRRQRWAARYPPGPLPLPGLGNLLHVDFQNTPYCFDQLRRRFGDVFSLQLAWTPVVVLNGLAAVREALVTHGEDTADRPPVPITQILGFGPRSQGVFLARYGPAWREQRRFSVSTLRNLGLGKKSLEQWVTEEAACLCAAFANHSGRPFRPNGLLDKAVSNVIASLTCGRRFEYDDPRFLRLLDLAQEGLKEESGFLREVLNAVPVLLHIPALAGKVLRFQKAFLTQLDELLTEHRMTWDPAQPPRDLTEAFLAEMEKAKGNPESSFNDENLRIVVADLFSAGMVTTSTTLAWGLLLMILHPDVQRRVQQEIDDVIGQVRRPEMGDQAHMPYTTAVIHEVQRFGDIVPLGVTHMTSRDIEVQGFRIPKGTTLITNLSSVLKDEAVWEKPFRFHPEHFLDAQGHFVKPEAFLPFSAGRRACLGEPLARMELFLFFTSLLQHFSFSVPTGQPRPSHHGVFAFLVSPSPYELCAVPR
Sequence of CYP 2B6 (P20813 whole entry, canonical isoform): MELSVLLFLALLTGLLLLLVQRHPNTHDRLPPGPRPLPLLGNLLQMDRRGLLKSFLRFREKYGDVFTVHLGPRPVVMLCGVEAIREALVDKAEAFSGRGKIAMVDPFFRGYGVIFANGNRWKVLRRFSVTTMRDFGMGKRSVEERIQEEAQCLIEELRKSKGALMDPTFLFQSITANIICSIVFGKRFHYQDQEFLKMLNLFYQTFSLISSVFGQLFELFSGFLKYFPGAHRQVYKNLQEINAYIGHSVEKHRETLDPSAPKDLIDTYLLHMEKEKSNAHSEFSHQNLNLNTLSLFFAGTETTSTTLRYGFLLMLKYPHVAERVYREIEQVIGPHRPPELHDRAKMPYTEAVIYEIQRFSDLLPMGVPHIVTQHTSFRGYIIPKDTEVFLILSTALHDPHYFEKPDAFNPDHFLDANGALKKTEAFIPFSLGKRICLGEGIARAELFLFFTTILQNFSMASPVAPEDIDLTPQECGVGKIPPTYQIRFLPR
Protocol for hERG potassium channel: The cell line used for the patch clamp assay was a 10th generation CHO cell overexpressing hERG potassium channel cDNA. CHO hERG cells were cultured in Petri dishes or flasks at 37° C. in a 5% CO2 incubator. Cells were dropped onto circular slides 24-48 hours prior to electrophysiological experiments and cultured in cell culture medium and used for experiments after the cells had been adhered.
Cell culture medium (purchased from Invitrogen) Composition: • Ham's F12 medium • 10% (v/v) heat inactivated FBS • 100 μg/ml Hygromycin B (thaumatin) • 100 μg/ml Geneticin (Genomycin, G418)
Compound powders are dissolved in the extracellular solution and are subjected to a routine 5 to 10 minute sonication and shaking to ensure complete dissolution of the compound.
The final concentrations of compounds used for electrophysiological assays were 5, 20 μM and the final concentration of DMSO was 0.1%.
Cell membrane currents were recorded using a HEKA EPC-10 USB patch-clamp amplifier (HEKA Elektronik, Germany). • 1) A coverslip with a large number of uniformly growing individual CHO hERG cells on its surface was taken. Place in a continuous recording cell on an inverted microscope, perfused with extracellular fluid (approximately 1 ml per minute) and recorded continuously, waiting for the current to stabilize. • 2) Record HERG channel currents for individual cells using standard whole cell recording mode. The membrane voltage is first clamped at −80 mV and the cell is given a +20 mV stimulus for 5 s to activate the hERG potassium channel, then repolarized to −50 mV for 5 s to generate an outward tail current, which is continuously perfused until the current is stable, at which point the peak tail current is the control current value. • 3) The extracellular solution containing the drug to be tested was then perfused and recorded until the inhibitory effect of the drug on the hERG current reached a steady state, at which point the peak tail current was the post-drug current value. • 4) The cells are again perfused with the extracellular solution until the hERG current returns to or approaches the level prior to the addition of the drug, then the perfusion can be continued to test other concentrations or drugs. One or more compound or drug concentrations may be tested on each cell. • 5) Cisapride (C4740-10 mg, Sigma) is used as a positive control in the experiment to ensure that the cells used respond properly.

The compound `C=CCn1c(=O)c2cnc(Nc3ccc(N4CCN(C)CC4)cc3)nc2n1-c1cccc(C(C)(C)O)n1` [AZD1775, reference compound] displayed an apparent permeability from apical to basolateral (Papp A→B) at 90 min, 10 µM in data set [1] of 0.8 ×10⁻⁶ cm/s. Further, the Papp B→A at 90 min, 10 µM in [1] was 15.2 ×10⁻⁶ cm/s. Also, the IC50 with HUVEC cells was more than 10 µM; at CYP 2B6, more than 10 µM; on CYP2D6 it was more than 10 µM; in the data set with OVCAR-3 cells, 0.1 to 1 µM. Also, the results for the fraction unbound at 5 h, 1 µM in [2] and in [4] were 0.087 and 0.374, respectively. The “Survival of Rats” value in data set [3] (female, 25 mg/kg) is reported as 7/7; in data set [3] (female, 75 mg/kg), 0/7; in [3] (male, 25 mg/kg), 7/7; in data set [3] (male, 75 mg/kg), 1/7.
As for `[2H][C@]1(O)c2nc(-n3c4nc(Nc5ccc(N6CCC7(CCN(C)CC7)CC6)cc5)ncc4c(=O)n3CC=C)ccc2CCC12CC2` [Compound 37b], the “Efflux Ration” value in the data set with Caco-2 cells (Caco2) is given as 21.06. In addition, the “Papp A to B” value in the data set with Caco-2 cells (Caco2, 10 μM, 90 min) is on record as 0.46 10^−6 cm/s. For the same compound, the “Papp B to A” value with Caco-2 cells (Caco2, 10 μM, 90 min) is reported as 9.69 10^−6 cm/s. In the data set on plasma protein [5], the “Plasma Protein binding (PPB) Mouse” value is given as 92.46%. Besides, the “hERG Inhibition” value at hERG potassium channel (test concentration 5 μM) turned out to be 18.00 ± 4.80%; on hERG potassium channel (test concentration 20 μM), 34.70 ± 4.40%. Also, in [6], the “Survival rate of rats (in words)” value is “significantly better than that in the control compound AZD1775 group and the control compound ZnC3 group”. For the same compound, the “Plasma Protein binding (PPB) Rat” value with plasma protein [7] is reported as 84.10%. In addition, the “Death Numbers” value in data set [8] (setting [9]) was found to be 0; in [8] (setting [10]) it was 0; in data set [8] (setting [11]), 3; in data set [8] (setting [12]), 2; in [8] (male rats, 200 mg/kg by gavage) it was 0; in data set [8] (male rats, 300 mg/kg by gavage) it was 0. For the same compound, the “Death Numbers” value stood at 2 in data set [8] (male rats, 400 mg/kg by gavage) and 2 in data set [8] (male rats, 500 mg/kg by gavage). The “Death Rate” value stood at 0% in [8] (setting [9]); 0% in [8] (setting [10]); 60% in [8] (setting [11]); 67% in data set [8] (setting [12]); 0% in data set [8] (male rats, 200 mg/kg by gavage); 0% in [8] (male rats, 300 mg/kg by gavage). Moreover, the “Death Rate” value in data set [8] (male rats, 400 mg/kg by gavage) came to 40%; in data set [8] (male rats, 500 mg/kg by gavage), 40%.
